# Measured values published in article PMC6562366 (Molecular Therapy Oncolytics, 2019).
# pIC50: −log10 of the molar value.
# Target: PIM-2 (Homo sapiens, UniProt Q9P1W9)
# Test: radiometric filter-binding kinase assay, recombinant kinase, dose-response
# Format: biochemical
# PIM-2, sequence (Q9P1W9 whole entry): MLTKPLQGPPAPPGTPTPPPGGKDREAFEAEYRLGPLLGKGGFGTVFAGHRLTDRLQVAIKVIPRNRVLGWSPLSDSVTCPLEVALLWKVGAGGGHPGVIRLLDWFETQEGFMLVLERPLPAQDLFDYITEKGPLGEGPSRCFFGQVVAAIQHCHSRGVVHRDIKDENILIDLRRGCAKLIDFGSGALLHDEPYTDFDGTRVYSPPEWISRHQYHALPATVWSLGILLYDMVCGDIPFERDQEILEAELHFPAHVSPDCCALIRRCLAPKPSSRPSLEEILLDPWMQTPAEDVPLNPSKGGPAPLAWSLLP
smiles,measurement,value
"C/C(O)=C(\C#N)C(=O)Nc1ccc(C(F)(F)F)cc1 [Ter, Teriflunomide]",pIC50,3.59
